# Test results published in ChEMBL document CHEMBL1136694, “Aryl tetrahydropyridine inhibitors of farnesyltransferase: bioavailable analogues with improved cellular potency” (Bioorg Med Chem Lett, 2003).
# pEC50, pIC50: −log10 of the molar value.
# Legend:
# [1] = target: Geranylgeranyl transferase type I (Homo sapiens, UniProt P49354+P53609); assay: In vitro inhibition of geranylgeranyltransferase-1; type: protein-complex assay
# [2] = target: Protein farnesyltransferase (Homo sapiens, UniProt P49354+P49356); assay: In vitro inhibition of farnesyltransferase; type: protein-complex assay
# [3] = target: Protein farnesyltransferase (Mus musculus, UniProt Q61239+Q8K2I1); assay: Inhibition of Ras farnesylation in Human Ha-Ras oncogene-transformed BALB/c 3T3 cells (EJ3 cells); type: functional, cell-based
# [4] = Compound was tested for orally bioavailable in dogs with a half life of 1.2h; type: ADME, organism-based, Canis lupus familiaris; settings: dog, in vivo, po
# [5] = Compound was tested for orally bioavailable in dogs with a half life of 0.7 hr; type: ADME, organism-based, Canis lupus familiaris; settings: dog, in vivo, po
SMILES,pIC50 [1],pIC50 [2],pEC50 [3],bioavailability [4],bioavailability [5]
N#CC1=C(c2cccc3ccccc23)CN(C(=O)Cc2cncn2Cc2ccc(C#N)c(Cl)c2)CC1,5.89,7.82,< 7.00,,
Cn1cncc1C(NN1CCC(C#N)=C(c2cccc3ccccc23)C1)c1ccc(C#N)cc1 (stereo not drawn),6.22,9.30,9.30,27%,
Cn1cncc1C(O)(CN1CCC(C#N)=C(c2cccc3ccccc23)C1)c1ccc(C#N)cc1 (stereo not drawn),6.27,9.32,8.40,,
COC1=C(C#N)CCN(C(=O)Cc2cncn2Cc2ccc(C#N)c(-c3cccc4ccccc34)c2)C1,5.57,8.85,< 7.00,,
Cn1cncc1CN(Cc1ccc(Cl)c(Cl)c1)C(=O)N1CCC(C#N)=C(c2cccc3ccccc23)C1,5.82,7.70,,,
Cn1cncc1CN(Cc1cccc(C#N)c1)C(=O)N1CCC(C#N)=C(c2cccc3ccccc23)C1,5.00,7.23,,,
Cn1cncc1CN(Cc1ccc(C#N)c(Br)c1)C(=O)N1CCC(C#N)=C(c2cccc3ccccc23)C1,5.85,8.51,< 9.00,,
N#CC1=C(c2cccc3ccccc23)CN(C(=O)Cc2cncn2Cc2ccc(Cl)cc2)CC1,< 5.00,7.46,< 7.00,,
N#CC1=C(c2cccc3ccccc23)CN(C(=O)CCc2cncn2Cc2ccc(C#N)cc2)CC1,5.89,8.85,7.55,,
CN(Cc1ccc(C#N)cc1)[C@H](Cc1cncn1C)C(=O)N1CCC(C#N)=C(c2cccc3ccccc23)C1,5.80,9.04,< 7.00,,
N#CC1=C(c2cccc3ccccc23)CN(C(=O)Cc2cncn2Cc2ccc(C#N)cc2)CC1,5.35,,8.41,,10%
Cn1cncc1C(c1ccc(C#N)cc1)N1CCC(C#N)=C(c2cccc3ccccc23)C1 (stereo not drawn),3.79,9.30,7.51,,
Cn1cncc1CN(Cc1ccc(C#N)cc1)C(=O)N1CCC(C#N)=C(c2cccc3ccccc23)C1,5.40,8.46,7.01,,
